{PEG40k} = 40 kDa polyethylene glycol; [invdT] = inverted (3'-3') thymidine; [HEG] = hexaethylene glycol spacer
How the values were obtained:
PDGF BB [1] = biological target: T1, PDGF BB (Homo sapiens, UniProt P01127); experiment: 3T3 cell proliferation assay (PDGF-BB induced); format: cell-based, rat; set-up: purchased PeproTech, Rocky Hill, N.J
Procedure: 3T3 cells, a rat fibroblast cell line (ATCC, Manassas, Va.), were plated 3,000 cells/well in a 96 well plate one day prior to the start of the assay in 100 ul DMEM/10% FCS. The following day, cells were washed once with straight DMEM and then 75 ul DMEM/0.8% FCS was added to each well. […] Cells were incubated for 3 days. Following incubation 10 ul MTT (Promega, Madison, Wis.) was added to each well and incubated for an additional 1.5 hours. Media was then removed, 200 ul Isopropanol (2-propanol) was added to each well, cells were re-suspended thoroughly and absorbance at 570 nm was read on a 96 well plate reader.
(§1) 3T3 cells, which are derived from a rat fibroblast cell line (ATCC, Manassas, Va.), were used in a proliferation assay to test potency of modified ARC513 aptamers. 3T3 fibroblast cells have PDGF receptors on their cell-surface and respond to mitogen, e.g., PDGF stimulation by proliferation. The assay was performed as follows: 3T3 cells were plated 3,000 cells/well in a 96 well plate one day prior to the start of the assay in 100 ul DMEM/10% FCS. The following day, cells were washed once with straight DMEM and then 75 ul DMEM/0.8% FCS was added to each well. Then 25 ul of PDGF-BB (PeproTech, Rocky Hill, N.J.) at a 50 ng/ml final concentration was added to each well +/− aptamer condition to be tested. […] The functional PDGF aptamer dilutions usually consisted of 6 points in 2-fold serial dilutions.
(§2) Cells were incubated for 3 days. Following incubation 10 ul MTT (Promega, Madison, Wis.) was added to each well and incubated for an additional 1.5 hours. Media was removed, 200 μl Isopropanol (2-propanol) was added to each well, cells were re-suspended thoroughly and absorbance at 570 nm was read on a 96 well plate reader. The present example depicts the potency comparison of PDGF aptamer ARC: 513 to that of ARC 513 variants.
The 3T3 proliferation assay previously described was used to test potency of all PEG conjugated ARC513 variants described immediately above. The assay was performed as follows: 3T3 cells were plated 3,000 cells/well in a 96 well plate one day prior to the start of the assay in 100 ul DMEM/10% FCS. The following day, cells were washed once with straight DMEM and then 75 ul DMEM/0.8% FCS was added to each well. Then 25 ul of PDGF-BB (PeproTech, Rocky Hill, N.J.) at a 50 ng/ml final concentration was added to each well +/− aptamer condition to be tested. […] The functional PDGF aptamer dilutions usually consisted of 6 points in 2-fold serial dilutions.
as §2, with “ARC513” for “ARC: 513”, “PEGylated ARC513 aptamers.” for “ARC 513 variants.”
as §1, with “3T3” for “3T3 cells, which are derived from a rat fibroblast cell line (ATCC, Manassas, Va.), were used in a proliferation assay to test potency of modified ARC513 aptamers. 3T3”, “100 μl” for “100 ul”
as §2, with “[…]” for “μl”, “reader.” for “reader. The present example depicts the potency comparison of PDGF aptamer ARC: 513 to that of ARC 513 variants.”

PDGF BB [2] = biological target: T1, PDGF BB; experiment: Cell migration assay, RPE cells; format: cell-based; set-up: purchased PeproTech, Rocky Hill, N.J
Procedure: PDGF is a strong mitogen as well as a chemoattractant. […] In the cell migration assay 80,000 cells 3T3 rat fibroblasts (ATCC, Manassas, Va.) or RPE (retinal pigmented epithelial) cells (ATCC, Manassas, Va.) were plated per well into a 24 well plate with 8 micron filters (BD Biosciences, Discovery Labware, Bedford, Mass.). 0.5 ml DMEM/0.2% FCS was added to the top chamber and 0.8 ml DMEM/0.2% FCS was added to the bottom chamber. The system was equilibrated by incubating for 4 hours at 37 degrees celsius. Human PDGF-BB (PeproTech, Rocky Hill, N.J.) (for RPE cells) or rat PDGF-BB (PeproTech) (for 3T3 cells) was added to the bottom chamber (0 ng/ml-100 ng/ml final concentration). […] Cells were scraped off on the top of filter with a Q-tip. The cells that migrated to the bottom of the filter were fixed with a mixture of cold 50% Methanol/50% Acetone for 3 minutes.
Following incubation filters were washed with 1×PBS and stained with Giemsa Stain (Matheson Coleman and Bell) for 1-2 hours and migration was visualized by taking pictures on a Zeiss Axiovert 200M microscope.
The 96 well assay starts by bringing plates and reagents to room temperature. 150 ul of DMEM/0.2% FBS was added with or without chemoattractant to the wells of the feeder tray.
Following incubation, the migration chamber plate was removed and the non-migratory cells were discarded. The number of migratory cells was quantitated according to manufacturer's recommended instructions. In brief, media from the top side was removed by flipping out the remaining cell suspension, and was placed onto a new feeder tray that contains 150 ul of pre-warmed Cell Detachment Solution. This mixture was incubated for 30 minutes at 37 degrees celsius. CyQuant GR Dye 1:75 was diluted with 4× Lysis Buffer and 50 ul of the Lysis Buffer/Dye Solution was added to each well containing 150 ul of the solution containing migratory cells.

[3] = 100 nM aptamer, 5 nM PDGF BB, 24 well format

T1 sequence (P01127 82-190 limits assumed): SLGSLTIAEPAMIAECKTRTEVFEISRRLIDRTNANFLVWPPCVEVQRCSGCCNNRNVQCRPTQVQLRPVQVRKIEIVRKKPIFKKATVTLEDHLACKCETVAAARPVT

Row | Substance | concentration reducing the PDGF driven increase in proliferation to background levels (PDGF BB [1]) | potency compared to PDGF neutralizing polyclonal antibody (PDGF BB [1]) | potency of legacy aptamers vs newly synthesized (PDGF BB [1]; after lyophilization and storage at −20 degrees celsius for 2 years) | effect of 5′ conjugation to 30 kDa and 40 kDa PEG groups on in vitro activity (PDGF BB [1]; relative to ARC126) | migration of RPE cells (PDGF BB [2]; [3]) | migration of RPE cells (PDGF BB [2]; 96 well format) | effect on 3T3 cell proliferation (PDGF BB [1]; scrambled control)
1 | 5′-[40 K PEG]-(SEQ ID NO:1)-HEG-(SEQ ID NO:2)-HEG-(SEQ ID NO:3)-3′-dT-3′ (chain 1 CAGGCUACG; chain 2 CGTAGAGCAUCA; chain 3 TGATCCUG; piece 1: 2'-fluoro at 6, 8, 2'-O-methyl at 9, 5' {PEG40k}, 3' [HEG], other sugars and backbone not given here; piece 2: 2'-O-methyl at 5, 7, 12, 2'-fluoro at 10, 11, 3' [HEG], other sugars and backbone not given here; piece 3: 2'-fluoro at 5, 6, 7, 2'-O-methyl at 8, 3' [invdT], other sugars and backbone not given here) [ARC127] | 30 nM | better potency | just as potent | does not significantly reduce the in vitro activity | inhibits the effects of 5 nM PDGF-BB | reduced migration levels to background | –
2 | 5′-(SEQ ID NO.4)-HEG-(SEQ ID NO:5)-HEG-(SEQ ID NO:6)-3 (chain 1 CAGCGUACG; chain 2 CGTACCGATUCA; chain 3 TGAAGCUG; HEG spacers joining pieces; synthetic aptamer; modified_base (4)..(4) cytidine is 2′-fluoro; modified_base (5)..(5) gm; modified_base (6)..(6) uridine is 2′-fluoro; modified_base (8)..(8) cytidine is 2′-fluoro; modified_base (9)..(9) gm; modified_base (7)..(7) gm; modified_base (10)..(10) uridine is 2′-fluoro; modified_base (11)..(11) cytidine is 2′-fluoro; modified_base (12)..(12) adenosine is 2′-O-Methyl; modified_base (6)..(6) cytidine is 2′-fluoro; modified_base (7)..(7) uridine is 2′-fluoro; modified_base (8)..(8) gm) [ARC128, reference compound] | – | – | – | – | no activity | did not affect migration | never displays an effect

Reference: patent publication US20090053138A1, “Stabilized Aptamers to Platelet Derived Growth Factor and their Use as Oncology Therapeutics” (priority 2002, published 2009)
